From US20140371262A1, “PREVENTIVE AND/OR THERAPEUTIC AGENT FOR THROMBOEMBOLISM IN THROMBOEMBOLISM PATIENT WITH SEVERE RENAL IMPAIRMENT” (Daiichi Sankyo Company, Limited, priority 2011, published 2014)

Tests used:
[1] = system: patients with moderate to-high-risk atrial fibrillation; assay: ENGAGE-AF TIMI-48 phase 3 study of edoxaban versus warfarin in atrial fibrillation
[2] = Clinical pharmacological trial: pharmacokinetics after single-dose edoxaban 15 mg in individuals with renal functional impairment; details: for AUC(0-t) / concentration at 24 h / CL renal / Cmax / half-life / Tmax: human, in vivo, 15 mg; for AUC(0-t): AUC0-24h Geometric least squares mean; for AUC(0-t) / concentration at 24 h / CL renal / Cmax / half-life / Tmax / AUC0-24h Geometric least squares mean ratio to healthy adult / Cmax Geometric least squares mean ratio to healthy adult: single-dose 15 mg; for concentration at 24 h: C24h Geometric mean (plasma edoxaban concentration 24 hours after administration); for CL renal: CLR Geometric mean (renal clearance); for Cmax: Cmax Geometric least squares mean; for half-life: t1/2 Geometric least squares mean; for Tmax: tmax Least squares mean
Experimental: Edoxaban was subjected to a clinical trial targeting individuals with renal functional impairment, in which edoxaban was studied for its pharmacokinetics in the individuals with renal functional impairment (Non-patent literature 4). In this clinical trial, 15 mg of edoxaban was administered at a single dose to each patient in five groups differing in the severity of renal functional impairment.

[3] = high-dose edoxaban (60 mg once daily, halved per criteria)
[4] = low-dose edoxaban (30 mg once daily, halved per criteria)
[5] = subgroup whose CLCR had become <30 mL/min during the trial, edoxaban 15 mg (N = 349), warfarin dose adjusted (N = 367)
[6] = healthy adult (CLCR > 80 mL/min)
[7] = mild renal impairment (50 ≦ CLCR ≦ 80 mL/min)
[8] = moderate renal impairment (30 ≦ CLCR < 50 mL/min)
[9] = severe renal impairment (CLCR < 30 mL/min, nondialyzed)
[10] = individuals with severe renal impairment

CN1CCc2nc(C(=O)N[C@@H]3C[C@@H](C(=O)N(C)C)CC[C@@H]3NC(=O)C(=O)Nc3ccc(Cl)cn3)sc2C1 [edoxaban, N^1-(5-chloropyridin-2-yl)-N^2-((1S,2R,4S)-4-[(dimethylamino)carbonyl]-2-{[(5-methyl-4,5,6,7-tetrahydrothiazolo[5,4-c]pyridin-2-yl)carbonyl]amino}cyclohexyl)ethanediamide]
Efficacy, safety and composite primary endpoint comprising ACM compared with warfarin ([1]; 15 mg dose regimen of edoxaban, subgroup CLCR <30 mL/min): noninferior to warfarin
Prevention of stroke or systemic embolism compared with warfarin ([1]; both once-daily regimens of edoxaban): noninferior to warfarin
Hazard ratio vs warfarin, death from cardiovascular causes ([1]; high-dose edoxaban): 0.86
Hazard ratio vs warfarin, key secondary end point ([1]; high-dose edoxaban): 0.87
Hazard ratio vs warfarin, major bleeding ([1]; high-dose edoxaban): 0.80
Hazard ratio vs warfarin, primary end point during treatment ([1]; high-dose edoxaban): 0.79
Hazard ratio vs warfarin, primary end point, intention-to-treat analysis ([1]; high-dose edoxaban): 0.87
Annualized rate of death from cardiovascular causes [1, 3]: 2.74%
Annualized rate of major bleeding [1, 3]: 2.75%
Annualized rate of the primary end point (stroke or systemic embolism) during treatment [1, 3]: 1.18%
Rate of the key secondary end point (composite of stroke, systemic embolism, or death from cardiovascular causes) [1, 3]: 3.85%
Hazard ratio vs warfarin, death from cardiovascular causes ([1]; low-dose edoxaban): 0.85
Hazard ratio vs warfarin, key secondary end point ([1]; low-dose edoxaban): 0.95
Hazard ratio vs warfarin, major bleeding ([1]; low-dose edoxaban): 0.47
Hazard ratio vs warfarin, primary end point during treatment ([1]; low-dose edoxaban): 1.07
Hazard ratio vs warfarin, primary end point, intention-to-treat analysis ([1]; low-dose edoxaban): 1.13
Annualized rate of death from cardiovascular causes [1, 4]: 2.71%
Annualized rate of major bleeding [1, 4]: 1.61%
Annualized rate of the primary end point (stroke or systemic embolism) during treatment [1, 4]: 1.61%
Rate of the key secondary end point (composite of stroke, systemic embolism, or death from cardiovascular causes) [1, 4]: 4.23%
ACM (all cause mortality): # of events [1, 5]: 12
ACM (all cause mortality): Event Rate [1, 5]: 1.95 %/yr
Disabling Stroke: # of events [1, 5]: 3
Disabling Stroke: Event Rate [1, 5]: 0.49 %/yr
Fatal Bleed: # of events [1, 5]: 2
Fatal Bleed: Event Rate [1, 5]: 0.33 %/yr
Fatal SEE: # of events [1, 5]: 0
Fatal SEE: Event Rate [1, 5]: 0.00 %/yr
Fatal Stroke: # of events [1, 5]: 2
Fatal Stroke: Event Rate [1, 5]: 0.33 %/yr
First Disabling or Fatal Stroke, Fatal SEE, LT or Fatal Bleed, or ACM: # of events [1, 5]: 19
First Disabling or Fatal Stroke, Fatal SEE, LT or Fatal Bleed, or ACM: Event Rate [1, 5]: 3.10 %/yr
First Stroke, SEE or TIA: # of events [1, 5]: 15
First Stroke, SEE or TIA: Event Rate [1, 5]: 2.48 %/yr
First Stroke, SEE, Major Bleed, or ACM: # of events [1, 5]: 39
First Stroke, SEE, Major Bleed, or ACM: Event Rate [1, 5]: 6.46 %/yr
LT Bleed (life threatening): # of events [1, 5]: 2
LT Bleed (life threatening): Event Rate [1, 5]: 0.33 %/yr
AUC(0-t) [2, 6]: 0.44 µg·h/mL
AUC(0-t) [2, 7]: 0.569 µg·h/mL
AUC(0-t) [2, 8]: 0.726 µg·h/mL
AUC(0-t) ([2]; peritoneal dialysis patient): 0.77 µg·h/mL
AUC(0-t) [2, 9]: 0.661 µg·h/mL
concentration at 24 h [2, 6]: 0.00234 µg/mL
concentration at 24 h [2, 7]: 0.00344 µg/mL
concentration at 24 h [2, 8]: 0.0059 µg/mL
concentration at 24 h ([2]; peritoneal dialysis patient): 0.00824 µg/mL
concentration at 24 h [2, 9]: 0.00688 µg/mL
CL renal [2, 6]: 197 mL/min
CL renal [2, 7]: 121 mL/min
CL renal [2, 8]: 67.4 mL/min
CL renal [2, 9]: 32.5 mL/min
Cmax [2, 6]: 0.0888 µg/mL
Cmax [2, 7]: 0.104 µg/mL
Cmax [2, 8]: 0.113 µg/mL
Cmax ([2]; peritoneal dialysis patient): 0.0838 µg/mL
Cmax [2, 9]: 0.0836 µg/mL
half-life [2, 6]: 8.6 h
half-life [2, 7]: 8.15 h
half-life [2, 8]: 9.44 h
half-life ([2]; peritoneal dialysis patient): 12.2 h
half-life [2, 9]: 16.9 h
Tmax [2, 6]: 1.5 h
Tmax [2, 7]: 1.88 h
Tmax [2, 8]: 1.38 h
Tmax ([2]; peritoneal dialysis patient): 2.37 h
Tmax [2, 9]: 1.7 h
Increase of C24 h compared with healthy adults ([2]; individuals with moderate renal impairment): 2.52 times
Degree of the rise in C24 h relative to healthy adults [2, 10]: approximately 3 times
Degree of the rise in C24 h relative to individuals with mild renal impairment [2, 10]: approximately 2 times
AUC0-24h Geometric least squares mean ratio to healthy adult [2, 7]: 1.29
Cmax Geometric least squares mean ratio to healthy adult [2, 7]: 1.17
AUC0-24h Geometric least squares mean ratio to healthy adult [2, 8]: 1.65
Cmax Geometric least squares mean ratio to healthy adult [2, 8]: 1.27
AUC0-24h Geometric least squares mean ratio to healthy adult ([2]; peritoneal dialysis patient): 1.75
Cmax Geometric least squares mean ratio to healthy adult ([2]; peritoneal dialysis patient): 0.944
AUC0-24h Geometric least squares mean ratio to healthy adult [2, 9]: 1.50
Cmax Geometric least squares mean ratio to healthy adult [2, 9]: 0.941
